According to patent US20190183811A1, “COMPOSITION CONTAINING SQUALENE FOR IMPROVING MUSCLE FUNCTION AND PREVENTING MUSCLE DAMAGE” (AAT COSTECH CO., LTD., priority 2016, published 2019):

What was measured:
[1] = system: p-mTOR in C2C12 muscle cells; test: Western blot of phosphorylated mTOR (p-mTOR) in C2C12 muscle cells treated with squalene; assay type: cell-based; details: FIG. 1
Procedure: In a case where mTOR protein is activated by phosphorylation, expression levels of major proteins in muscle cells which are expressed upon differentiation and are associated with muscle protein synthesis and muscle mass increase in a PI3K/Akt signaling pathway were checked. The obtained cells were lysed with an NP-40 buffer solution (ELPISBIOTECH. INC, Daejeon, Korea) containing a protease inhibitor cocktail (Sigma-Aldrich), and centrifuged at 13,000 rpm for 10 minutes to obtain a cell lysate which is a supernatant. A protein concentration in the supernatant was quantitated by Bradford. Then, a predetermined concentration of the proteins was heated for 5 minutes and separated by SDS-PAGE electrophoresis. The separated proteins were transferred to a nitrocellulose membrane. Then, a p-mTOR primary antibody (Cell Signaling Technology, Inc., Beverly, Mass., USA) was diluted with 2.5% bovine serum albumin (BSA; BioWORLD, Dublin, Ohio, USA) at a ratio of 1:1,000, and the resultant was allowed to react with the proteins, which had been transferred to the nitrocellulose membrane, at room temperature for 20 hours. […] Protein bands detected through antibody binding were developed using the ECL Western Blot Detection Reagent (Amersham, Tokyo, Japan), and the developed protein bands were identified using a G:BOX EF imaging system (Syngene, Cambridge, UK).

[2] = system: immobilized rats (muscle atrophy and muscle damage); test: Weight of muscle physically directly damaged by the stapler (regeneration of damaged muscles); assay type: in vivo, rats (C57BL/6J); details: right hindlimb, squalene 100 and 200 mg/kg/day oral for one week, vs immobilized group, **P<0.01, FIG. 7
Procedure: (§1) Seven-week-old male rats (C57BL/6J; DBL Co., Ltd.) were purchased as experimental animals, and experiments were conducted. All animals were kept at the Yonsei Laboratory Animal Research Center (YLARC, Seoul, Korea), and an environment under which the animals were kept was maintained at a temperature of 23±2° C. and a relative humidity of 55±10%. Before starting experiments, a total of 28 rats were randomly assigned to 7 rats per group, and the groups were divided into a normal group, an immobilized group, 100 mg/kg/day of squalene-administered group (squalene 100-administered group), and 200 mg/kg/day of squalene-administered group (squalene 200-administered group). After one week of adaptation, anesthesia was induced by intraperitoneal injection of 325 mg/kg of tribromoethanol (Sigma-Aldrich). […] One week later, the staples fixed on the gastrocnemius muscle and the sole were removed and squalene was orally administered at a concentration of 100 mg/kg and 200 mg/kg on a daily basis for one week. The normal group and the immobilized group were orally administered saline instead of squalene. In the rat from which the tibialis anterior muscle of the right hindlimb was extracted in the above <Example 4-3>, a tibialis anterior muscle of the right hind limb, which was physically directly damaged by the stapler, was extracted and weighed.

[3] = system: immobilized rats (muscle atrophy and muscle damage); test: Muscular strength (muscular strength meter) after hindlimb immobilization; assay type: in vivo, rats (C57BL/6J); details: squalene 100 and 200 mg/kg/day oral for one week after one week immobilization; vs immobilized group, **P<0.01; FIG. 4
Procedure: Seven-week-old male rats (C57BL/6J; DBL Co., Ltd.) were purchased as experimental animals, and experiments were conducted. All animals were kept at the Yonsei Laboratory Animal Research Center (YLARC, Seoul, Korea), and an environment under which the animals were kept was maintained at a temperature of 23±2° C. and a relative humidity of 55±10%. Before starting experiments, a total of 28 rats were randomly assigned to 7 rats per group, and the groups were divided into a normal group, an immobilized group, 100 mg/kg/day of squalene-administered group (squalene 100-administered group), and 200 mg/kg/day of squalene-administered group (squalene 200-administered group). After one week of adaptation, anesthesia was induced by intraperitoneal injection of 325 mg/kg of tribromoethanol (Sigma-Aldrich). […] One week later, the staples fixed on the gastrocnemius muscle and the sole were removed and squalene was orally administered at a concentration of 100 mg/kg and 200 mg/kg on a daily basis for one week. The normal group and the immobilized group were orally administered saline instead of squalene. After the oral administration period was completed in the above <Example 4-1>, muscular strength of the rats was measured using a muscular strength meter (Columbus Instruments International, Columbus, Ohio, USA). All forelimbs and hindlimbs of the rat were grasped on a grid. […]

[4] = system: atrogin-1 mRNA in C2C12 muscle cells; test: RT-PCR of atrogin-1 mRNA expression in C2C12 muscle cells treated with squalene; assay type: cell-based; details: cultured 12 hours, FIG. 3
Procedure: (§2) Thus, in order to identify whether the produced muscle proteins can also be protected against degradation through degradation-inhibitory activity of squalene, mRNA transcriptional expression levels of atrogin-1 and MuRF1 which are muscle-degrading proteins were checked.
(§3) Specifically, C2C12 muscle cells were treated with squalene and cultured for 12 hours while inducing differentiation, by performing the same method as in the above <Example 1>. The resulting cells were obtained. Total RNA was isolated from the obtained cells using a TRIzol reagent (Invitrogen, Carlsbad, Calif., USA). The isolated total RNA was quantitated using NanoDrop 1000 (Thermo Fisher Scientific Inc., Waltham, Mass., USA). The quantified 16 μL of RNA was synthesized into cDNA using Reverse Transcriptase Premix (ELPISBIOTECH. INC) and a PCR machine (Gene Amp PCR System 2700; Applied Biosystems, Foster City, Calif., USA) under a condition at 42° C. for 55 minutes and 70° C. for 15 minutes. 3 μL of cDNA out of the synthesized cDNA, specific primers (BIONEER CORPORATION, Daejeon, Korea) as shown in the following [Table 1], and a PCR premix (ELPISBIOTECH. INC) were mixed, and PCR was performed by repeating 30 cycles of 95° C. for 30 seconds, 60° C. for 1 minute, and 72° C. for 1 minute. […]

[5] = system: p-p70S6K in C2C12 muscle cells; test: Western blot of p-p70S6K protein in C2C12 muscle cells treated with squalene; assay type: cell-based; details: FIG. 2
Procedure: Thus, in order to identify this fact in a more specific manner, a phosphorylation-induced activity level of p70S6K protein, which is known to be involved in an mRNA translation process in muscle cells, was checked, instead of an expression level of p-mTOR. Specifically, C2C12 muscle cells were treated with squalene and cultured while inducing differentiation, by performing the same method as in the above <Example 1>. The resulting cells were obtained and subjected to western blotting. A p-p70S6K antibody (Santa Cruz Biotechnology, Inc., Santa Cruz, Calif., USA) was used as a primary antibody for western blotting.

[6] = system: MuRF1 mRNA in C2C12 muscle cells; test: RT-PCR of MuRF1 mRNA expression in C2C12 muscle cells treated with squalene; assay type: cell-based; details: cultured 12 hours, FIG. 3
Procedure: as §2, §3

[7] = system: immobilized rats (muscle atrophy and muscle damage); test: Myofiber cross-sectional area in tibialis anterior muscle (H&E staining, Image J); assay type: in vivo, rats (C57BL/6J); details: squalene 100 and 200 mg/kg/day oral for one week; vs immobilized group, **P<0.01; FIG. 6
Procedure: as §1, with “squalene. […]” for “squalene.”, “addition, myofibers were photographed and a cross-sectional area thereof was measured with an Image J program (National Institutes” for “the rat from which the tibialis anterior muscle”, “Health, Bethesda, […], USA).” for “the right hindlimb was extracted in the above <Example 4-3>, a tibialis anterior muscle of the right hind limb, which was physically directly damaged by the stapler, was extracted and weighed.”

[8] = system: immobilized rats (muscle atrophy and muscle damage); test: Weight of tibialis anterior muscle of right hindlimb after immobilization; assay type: in vivo, rats (C57BL/6J); details: muscle not damaged by stapler, squalene 100 and 200 mg/kg/day oral for one week, vs immobilized group, *P<0.05, FIG. 5
Procedure: as §1, with “After” for “In”, “measurement” for “rat from which the tibialis anterior muscle”, “muscular strength” for “the right hindlimb was extracted”, “4-2> was completed, the experimental animals were anesthetized by intraperitoneal injection” for “4-3>, a tibialis anterior muscle”, “325 mg/kg of tribromoethanol (Sigma-Aldrich), and then sacrificed” for “the right hind limb, which was physically directly damaged”, “cardiac puncture. […]” for “the stapler, was extracted and weighed.”

**Q.** Which “expression level of phosphorylated mTOR (p-mTOR)” value [1] does the source give for `CC(C)=CCC/C(C)=C/CC/C(C)=C/CC/C=C(\C)CC/C=C(\C)CCC=C(C)C` [squalene, (6E,10E,14E,18E)-2,6,10,15,19,23-hexamethyltetracosa-2,6,10,14,18,22-hexaene] here?
**A.** increased

**Q.** What about the “weight of the tibialis anterior muscle physically directly damaged by the stapler” value [2] of the same compound?
**A.** increased in a concentration-dependent manner

**Q.** And the muscular strength [3]?
**A.** restored in a concentration-dependent manner

**Q.** What about the “mRNA expression level of atrogin-1” value [4] of the same compound?
**A.** decreased

**Q.** And the “expression level of the p-p70S6K protein” value [5]?
**A.** increased

**Q.** What about the “mRNA expression level of MuRF1” value [6] of the same compound?
**A.** decreased

**Q.** What about the “myofiber cross-sectional area in the tibialis anterior muscle” value [7] of the same compound?
**A.** increased in a concentration-dependent manner

**Q.** And the “weight of the tibialis anterior muscle” value [8]?
**A.** increased in a concentration-dependent manner
